{"source": "paper PMC12583094", "about": "“A novel antioxidant peptide from black soybean [Glycine max (L.) Merr.] with verified MPO interaction and multi-scale antioxidant activity” (Frontiers in Nutrition, 2025)", "key": {"[1]": {"conditions": "cited from earlier work; for antioxidant bioactivity: peptides from sturgeon ovarian protein hydrolysates; for radical scavenging activity: peptides from Thunnus albacares protein hydrolysates; for antioxidant activity and free radical scavenging: peptides from black soybean processing by-products", "text": "Black soybean [Glycine max (L.) Merr.], belonging to the family Fabaceae, subfamily Faboideae, genus Glycine, and subgenus Soja, is a traditional legume crop characterized by its black seed coat. It has been cultivated in China for thousands of years, and China remains the largest producer and consumer of soybeans globally, with substantial production and consumption of black soybean in particular ([8])."}, "[2]": {"test": "DPPH radical scavenging assay", "assay_type": "biochemical", "conditions": "50 μL + 450 μL of 0.1 mM DPPH in anhydrous ethanol, dark, room temperature, 30 min, 517 nm, mean ± SD, n = 3", "method": "Prior to the assay, the microplate reader was preheated for 1 h. The peptide samples were dissolved in sterile water to prepare a concentration gradient of 0.1, 1, 5, and 10 mg/mL. For the DPPH assay, 50 μL of sterile water and 450 μL of DPPH solution (0.1 mM in anhydrous ethanol) were added to the blank tube. For the control tube, 50 μL of peptide solution and 450 μL of anhydrous ethanol were mixed. For the sample tubes, 50 μL of peptide solution and 450 μL of DPPH solution were combined. All mixtures were incubated in the dark at room temperature for 30 min. Absorbance was measured at 517 nm using a UV–visible spectrophotometer."}, "[3]": {"test": "ABTS radical scavenging assay", "assay_type": "biochemical", "conditions": "ABTS solution diluted 20-fold with anhydrous ethanol, 30 min dark, 734 nm, mean ± SD, n = 3", "method": "For the ABTS assay, ABTS radical solution was prepared by mixing Reagent A and Reagent B (from the assay kit) at a 1:1 volume ratio, followed by incubation in the dark for 12 h. The resulting ABTS solution was diluted 20-fold with anhydrous ethanol before use. The blank, control, and sample solutions were prepared in the same manner as in the DPPH assay, followed by 30 min of dark incubation. Absorbance was measured at 734 nm. The radical scavenging activity was calculated using the formula reported by Thanyaporn Aursuwanna et al. ([22])."}, "[4]": {"conditions": "cited from earlier work; for ABTS radical scavenging rate at 1 mg/mL / DPPH radical scavenging rate at 1 mg/mL: peptide from Glycine max hydrolysate", "text": "(§1) Similarly, Zhang et al. identified two antioxidant peptides, VVFVDRL and […], from Glycine max hydrolysate, both of which contain N-terminal valine residues. […] This enhanced activity was attributed to the presence of repeating amino acids within the peptide sequences, a feature that has also been associated with stronger bioactivity in antioxidant peptid ..."}, "HaCaT cells [5]": {"tested_on": "HaCaT cells", "test": "CCK8 cell viability, concentration screening in HaCaT cells", "assay_type": "cell-based, human", "conditions": "24 h, CCK8, 450 nm, vs control, n = 3", "method": "(§2) HaCaT cell recovery, culture, and subculture were performed with reference to the method described by Yusha Zi et al., with some modifications ([23]). For recovery, cryopreserved HaCaT cells were retrieved from liquid nitrogen storage and quickly thawed in a 37 °C water bath with gentle shaking. Just before complete thawing, the tube was removed from the water bath, and the cell suspension was immediately transferred into a 15 mL centrifuge tube containing 9 mL of pre-warmed complete medium. The complete medium consisted of DMEM supplemented with 10% fetal bovine serum (FBS) and 1% penicillin–streptomycin (P/S). Cells were centrifuged at 800 rpm for 5 min at 4 °C. After discarding the supernatant, the cell pellet was resuspended in 5 mL of fresh complete medium and transferred to a culture flask equipped with a ventilated cap. Cells were incubated in a humidified incubator at 37 °C with 5% CO₂ and 95% humidity.\nFor subculturing, when cell confluence reached approximately 80%, the medium was discarded, and the cells were gently rinsed three times with 2 mL of PBS. Then, 1 mL of 0.25% trypsin solution was added, and the flask was incubated at 37 °C for about 1 min. Once the cells became round and partially detached (as observed under a microscope), 3 mL of complete medium was added to terminate the digestion. The cell suspension was gently pipetted to disperse the cells and transferred to a 15 mL centrifuge tube. After centrifugation at 800 rpm for 5 min at 4 °C, the supernatant was discarded. The pellet was resuspended in fresh medium and seeded into new culture flasks at a ratio of 1:3, followed by incubation under the same culture conditions.\nAfter digestion and resuspension, HaCaT cells were seeded into a 96-well plate at a concentration of 1 × 10^^4 cells/ml, with 100 μL of complete culture medium added to each well. Three wells with no cells were treated with an equal volume of complete culture medium as the blank group. The cells were incubated for 24 h to allow attachment. For the experiment, the control and blank groups were replaced with an equal volume of fresh medium, while the treatment groups were treated with a concentration gradient of 100, 200, 500, 1,000, and 1,500 μg/mL H2O2 and peptide samples. The H2O2 group was incubated for 1 h, while the peptide sample group was incubated for 24 h. After incubation, the original medium was discarded, and 100 μL of CCK8 working solution (prepared from 90% DMEM + 10% CCK8 reagent) was added to each well. The blank group, which contained no cells, was used as the reference. The plate was incubated for an appropriate period, and the absorbance at 450 nm was measured using a microplate reader. Cell viability was calculated using the following formula:\nCell viability(%)=100%×(ODsample−ODblank)/(ODcontrol−ODblank)."}, "HaCaT cells [6]": {"tested_on": "HaCaT cells", "assay_type": "cell-based, human", "conditions": "24 h, 1000 μg/mL", "method": "as §2, with “humidity. For subculturing, when cell confluence reached approximately 80%, the medium was discarded, and the cells were gently rinsed three times with 2 mL of PBS. […] The plate was incubated for an appropriate period, and the absorbance at 450 nm was measured using a microplate reader. Cell viability was calculated using the following formula: Cell viability(%)=100%×(ODsample−ODblank)/(ODcontrol−ODblank). […] The absorbance was measured and cell viability was calculated under the same conditions.” for “humidity.”"}, "MPO": {"tested_on": "MPO", "conditions": "cited from earlier work", "text": "as §1"}, "[7]": {"conditions": "peptide from cherry seeds; cited from earlier work"}, "[8]": {"conditions": "peptide from cherry seeds, molecular dynamics simulation; cited from earlier work", "text": "The root mean square deviation (RMSD) value reflects the deviation of the complex from its initial conformation over the course of the simulation. RMSD fluctuations are directly indicative of conformational stability, with deviations below 0.5 nm generally considered acceptable ([34]). […] In this surface, blue to white regions indicate low free energy value, whereas yellow to red regions reflect higher energy states. […] For the MPO–[…] complex, the energy p ..."}, "[9]": {"conditions": "peptide from foxtail millet prolamin"}}, "note": "Like-named read-outs stand apart in the source and are kept apart here. No end group written: not given here."}
{"substance": "FEGPPFKF [antioxidant peptide from sturgeon ovarian protein hydrolysates]", "values": [{"measurement": "antioxidant bioactivity", "setting": "[1]", "value": "demonstrated antioxidant bioactivity"}]}
{"substance": "KFCSGHA [antioxidant peptide from Thunnus albacares protein hydrolysates]", "values": [{"measurement": "radical scavenging activity", "setting": "[1]", "value": "significant radical scavenging activity"}]}
{"substance": "Glutathione [GSH]", "values": [{"measurement": "DPPH radical scavenging rate at 0.1 mg/mL", "setting": "[2]; 0.1 mg/mL peptide solution", "value": "27.72 ± 2.86", "unit": "%"}, {"measurement": "DPPH radical scavenging rate at 1 mg/mL", "setting": "[2]; 1 mg/mL peptide solution", "value": "54.36 ± 3.61", "unit": "%"}, {"measurement": "DPPH radical scavenging rate at 5 mg/mL", "setting": "[2]; 5 mg/mL peptide solution", "value": "69.01 ± 4.68", "unit": "%"}, {"measurement": "DPPH radical scavenging rate at 10 mg/mL", "setting": "[2]; 10 mg/mL peptide solution", "value": "84.87 ± 1.39", "unit": "%"}, {"measurement": "ABTS radical scavenging rate at 0.1 mg/mL", "setting": "[3]; 0.1 mg/mL", "value": "24.52 ± 4.01", "unit": "%"}, {"measurement": "ABTS radical scavenging rate at 1 mg/mL", "setting": "[3]; 1 mg/mL", "value": "40.76 ± 3.01", "unit": "%"}, {"measurement": "ABTS radical scavenging rate at 5 mg/mL", "setting": "[3]; 5 mg/mL", "value": "60.28 ± 3.58", "unit": "%"}, {"measurement": "ABTS radical scavenging rate at 10 mg/mL", "setting": "[3]; 10 mg/mL", "value": "82.92 ± 1.27", "unit": "%"}]}
{"substance": "IVPK [peptide from black soybean processing by-products]", "values": [{"measurement": "antioxidant activity and free radical scavenging", "setting": "[1]", "value": "exhibited antioxidant activity and free radical scavenging capacity"}]}
{"substance": "VIYVVDLR [antioxidant peptide from Glycine max hydrolysate]", "values": [{"measurement": "ABTS radical scavenging rate at 1 mg/mL", "setting": "[4]", "value": "~50", "unit": "%"}, {"measurement": "DPPH radical scavenging rate at 1 mg/mL", "setting": "[4]", "value": "approximately 40%"}]}
{"substance": "FDWDRL [antioxidant peptide from sturgeon ovarian protein hydrolysates]", "values": [{"measurement": "antioxidant bioactivity", "setting": "[1]", "value": "demonstrated antioxidant bioactivity"}]}
{"substance": "VPNHFNAP", "values": [{"measurement": "effect on HaCaT cell viability, 1500 μg/mL", "setting": "HaCaT cells [5]; peptide 1500 μg/mL", "value": "a marked decrease"}, {"measurement": "effect on HaCaT cell viability, 100 to 1,000 μg/mL", "setting": "HaCaT cells [5]; peptide 100 to 1,000 μg/mL", "value": "did not cause significant changes in cell viability"}, {"measurement": "HaCaT cell viability, peptide pretreatment then H2O2", "setting": "HaCaT cells [6]", "value": "64.38 ± 4.22", "unit": "%"}]}
{"substance": "VLIPMP [antioxidant peptide from foxtail millet prolamin]", "values": [{"measurement": "ABTS IC₅₀", "setting": "[4]; [9]", "value": 2.33, "unit": "mg/mL"}, {"measurement": "DPPH IC₅₀", "setting": "[4]; [9]", "value": 4.45, "unit": "mg/mL"}, {"measurement": "number of hydrogen bonds formed with MPO", "setting": "MPO", "value": "higher than that observed for VPNHFNAP"}, {"measurement": "stability of the VLIPMP–MPO complex", "setting": "MPO; molecular dynamics simulations", "value": "confirmed the stability of the VLIPMP–MPO complex"}, {"measurement": "binding free energy calculated by MM-PBSA", "setting": "MPO; with MPO", "value": "-40.83 ± 7.64", "unit": "kcal/mol"}]}
{"substance": "VVFVDRL [antioxidant peptide from Glycine max hydrolysate]", "values": [{"measurement": "ABTS radical scavenging rate at 1 mg/mL", "setting": "[4]", "value": "~50", "unit": "%"}, {"measurement": "DPPH radical scavenging rate at 1 mg/mL", "setting": "[4]", "value": "approximately 40%"}]}
{"substance": "ACGSDGK [antioxidant peptide from Thunnus albacares protein hydrolysates]", "values": [{"measurement": "radical scavenging activity", "setting": "[1]", "value": "significant radical scavenging activity"}]}
{"substance": "LVPK [peptide from black soybean processing by-products]", "values": [{"measurement": "antioxidant activity and free radical scavenging", "setting": "[1]", "value": "exhibited antioxidant activity and free radical scavenging capacity"}]}
{"substance": "LYSPH [antioxidant peptide LYSPH, derived from cherry seeds]", "values": [{"measurement": "docking binding energy", "setting": "[7]", "value": -7.9, "unit": "kcal/mol"}, {"measurement": "number of hydrogen bonds", "setting": "[8]", "value": "3 ± 1", "unit": "hydrogen bonds"}]}
